Source: patent US9562891B2, “Method for screening patient-specific anti-cancer agent using limiting dilution assay” (Samsung Life Public Welfare Foundation, priority 2013, dated 2017)

Experiments:
[1] = test system: 775T cell line (patient-derived brain glioblastoma); assay: Screening of anti-cancer agent using limiting dilution assay (sphere formation, ratio of non-formed wells); format: cell-based, human; settings: 775T as compared to 448T and 464T cell lines; cultured 2 to 3 weeks (FIG. 5)
Excerpt: The patient-specific anti-cancer agent was screened by using a limiting dilution assay according to the above-described Examples, and a result obtained therefrom was compared with a result separately obtained by a screening method using a 96 well plate. Alginate gel containing 2, 5, 10, 20, 50 or 100 cells was discharged onto each micropillar and was subjected to stamping into a culture medium containing the anti-cancer agent. The anti-cancer agent SU11274 and PHA665752, which is c-Met inhibitor, was treated for each concentration. A size of spheres formed after being cultured for 2 to 3 weeks was automatically measured and analyzed. Whether or not the sphere is formed was determined by culturing cells of the experimental group and the control group up to 4 doubling times and comparing sphere area max values of the biggest spheres among the spheres formed in each well, as shown in FIG. 4. […] Here, the well having sphere area max value smaller than the reference value was determined that the spheres were not formed in the well (non-formed). The well having sphere area max value as the same as the average value of the sphere area max of the control group or higher than that was determined that the sphere were formed in the well (formed). […]

[2] = test system: patient-derived cancer cells (brain glioblastoma); assay: Three-dimensional culture of patient-derived cancer cells in alginate on micropillar chip, Calcein AM sphere staining; format: cell-based, human
Method: The suspension-cultured neurospheres obtained in Example above were collected and treated with 0.025% trypsin/EDTA for 3 minutes, thereby obtaining cell suspensions at a level of a single cell. The cell suspensions were prepared at a concentration of 4 cells/30 nl, 10 cells/30 nl, 20 cells/30 nl, 40 cells/30 nl, 100 cells/30 nl and 200 cells/30 nl, respectively. 50 μL of 3% alginate (Sigma-Aldrich, US) and 100 μL distilled water were mixed to prepare 1% alginate, and then the cell suspensions and 1% alginate as prepared above were mixed together in the same amount. The prepared alginate/cell mixture was discharged onto the surface-modified micropillar using a microarray spotter (Samsung Electro-Mechanics Co., Korea), followed by gelation for 2 minutes so that an alginate gel containing 2, 5, 10, 20, 50 or 100 cells was fixed onto each micropillar (FIG. 1). Each of 950 nl of 2 μM, 5 μM or 10 μM SU11274 (Sigma-Aldrich, US) was dispersed into a microwell chip (Samsung Electro-Mechanics Co., Korea) and the micropillar chip was subjected to stamping. […] 4 doubling time incubation was performed until spheres were formed from the patient-derived cancer cells, and the micropillar chip was subjected to fluorescence staining. […]

SMILES | sensitivity of cell line to anti-cancer effect in limiting dilution assay [1] | survival rate of the cancer cells ([2]; 2 μM, 5 μM or 10 μM, 2-100 cells per alginate gel, cultured 12 days, Calcein AM staining (FIG. 2)) | sphere formation (maximum sphere area) ([2]; 5 uM, 12 days, control group sphere areas increased to a maximum of 10.14 times (FIG. 3))
Cc1[nH]c(/C=C2\C(=O)Nc3ccc(S(=O)(=O)Cc4c(Cl)cccc4Cl)cc32)c(C)c1C(=O)N1CCC[C@@H]1CN1CCCC1 [PHA665752] | most sensitive anti-cancer effects | – | –
Cc1[nH]c(/C=C2\C(=O)Nc3ccc(S(=O)(=O)N(C)c4cccc(Cl)c4)cc32)c(C)c1C(=O)N1CCN(C)CC1 [SU11274] | most sensitive anti-cancer effects | survival rate of the cancer cells were decreased | did not form the spheres
